Holding throughout (type): functional, cell-based
For one assay, the system named is A549. In words: Cytotoxicity against human A549 cells.
The subject of another assay is HT-29. The assay can be described thus: Cytotoxicity against human HT29 cells.
Another assay relates to P388. In words: Cytotoxicity against mouse P388 cells.

By IC50 is commonly meant the midpoint of a concentration-inhibition curve. A high value points to a need for much substance. For `C=C1C(=O)O[C@@H]2/C=C(\COC(C)=O)CC/C=C(/C=O)C[C@H](OC(C)=O)[C@@H]12`, the IC50 stood at 2800 nM in the assay on A549, 2800 nM in the assay with HT-29 and 1400 nM in the assay on P388.

Consider `C=C1C(=O)O[C@@H]2/C=C(\COC(C)=O)CC/C=C(/CO)C[C@H](OC(C)=O)[C@@H]12`, for which the IC50 was 5500 nM in the assay on A549 and 2700 nM in the assay with P388.
